Test results published in PubChem BioAssay AID248 (DTP/NCI, 2004).
Several values for one entry are separate records, joined by “and”; a condition that tells them apart may be missing. Equal entries are not always repeated. Inconclusive results and toxic doses are left out. No stated cut-off is given here; in the data, active means T/C of 150% or more; inactive means T/C below 125%.

Tested on: L1210 leukemia ip in BDF1 mice, survival T/C
Assay: NCI In Vivo Anticancer Drug Screen. Data for tumor model L1210 Leukemia (intraperitoneal) in B6D2F1 (BDF1) mice
Details: endpoint: mean survival time, higher = longer survival
Summary of the method: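 Tumor was transplanted into mice, which were then dosed with test compound or vehicle alone. Survival was recorded for each group, and the treated figure was expressed relative to the control figure.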

[1] = dose: 100.0 mg/kg/injection, schedule: Q04DX002 (ip), vehicle: saline with Tween-80
[2] = dose: 200.0 mg/kg/injection, schedule: Q04DX002 (ip), vehicle: saline with Tween-80
[3] = dose: 400.0 mg/kg/injection, schedule: Q04DX002 (ip), vehicle: saline with Tween-80
[4] = dose: 50.0 mg/kg/injection, schedule: Q04DX003 (ip), vehicle: saline
[5] = dose: 100.0 mg/kg/injection, schedule: Q04DX003 (ip), vehicle: saline
[6] = dose: 200.0 mg/kg/injection, schedule: Q04DX003 (ip), vehicle: saline
[7] = dose: 400.0 mg/kg/injection, schedule: Q04DX003 (ip), vehicle: saline
[8] = dose: 100.0 mg/kg/injection, schedule: Q01DX001 (ip), vehicle: saline
[9] = dose: 200.0 mg/kg/injection, schedule: Q01DX001 (ip), vehicle: saline
[10] = dose: 400.0 mg/kg/injection, schedule: Q01DX001 (ip), vehicle: saline
[11] = dose: 100.0 mg/kg/injection, schedule: Q01DX009 (ip), vehicle: Klucel (hydroxypropylcellulose) (HPC)
[12] = dose: 100.0 mg/kg/injection, schedule: Q04DX003 (ip), vehicle: Klucel (hydroxypropylcellulose) (HPC)
[13] = dose: 200.0 mg/kg/injection, schedule: Q01DX009 (ip), vehicle: Klucel (hydroxypropylcellulose) (HPC)
[14] = dose: 200.0 mg/kg/injection, schedule: Q04DX003 (ip), vehicle: Klucel (hydroxypropylcellulose) (HPC)
[15] = dose: 400.0 mg/kg/injection, schedule: Q01DX009 (ip), vehicle: Klucel (hydroxypropylcellulose) (HPC)
[16] = dose: 400.0 mg/kg/injection, schedule: Q04DX003 (ip), vehicle: Klucel (hydroxypropylcellulose) (HPC)
[17] = dose: 100.0 mg/kg/injection, schedule: Q01DX001 (ip), vehicle: Klucel (hydroxypropylcellulose) (HPC)
[18] = dose: 200.0 mg/kg/injection, schedule: Q01DX001 (ip), vehicle: Klucel (hydroxypropylcellulose) (HPC)
[19] = dose: 100.0 mg/kg/injection, schedule: Q04DX002 (ip), vehicle: Klucel (hydroxypropylcellulose) (HPC)
[20] = dose: 200.0 mg/kg/injection, schedule: Q04DX002 (ip), vehicle: Klucel (hydroxypropylcellulose) (HPC)
[21] = dose: 400.0 mg/kg/injection, schedule: Q04DX002 (ip), vehicle: Klucel (hydroxypropylcellulose) (HPC)

Measured: T/C

CC(C)COC(c1ccc2c(c1)OCO2)C(C)Br (stereo unspecified)
inactive: [1] 96 % of control | [2] 101 % of control | [3] 107 % of control

O=P(CCl)(CCCl)CCCl
inactive: [4] 101 % of control | [5] 103 % of control | [6] 103 % of control | [7] 89 % of control

Cc1ccc(NC(=O)NCCO)cc1C
inactive: [1] 95 % of control | [2] 95 % of control

O=C(O)c1c(F)c(F)c(-c2c(F)c(F)c(C(=O)O)c(F)c2F)c(F)c1F
inactive: dose: 100.0 mg/kg/injection, schedule: Q01DX001 (ip), vehicle: saline with Tween-80 93 % of control | dose: 200.0 mg/kg/injection, schedule: Q01DX001 (ip), vehicle: saline with Tween-80 95 % of control | dose: 400.0 mg/kg/injection, schedule: Q01DX001 (ip), vehicle: saline with Tween-80 93 % of control

CCC1([N+](=O)[O-])COP(=O)(OP2(=O)OCC(CC)([N+](=O)[O-])CO2)OC1 (stereo unspecified)
inactive: [8] 116 % of control | [9] 97 % of control | [10] 100 % of control

O=N/C=C/C(=N/Nc1ccc(C(=O)O)cc1)[N+](=O)[O-]
inactive: [8] 101 % of control | [9] 93 % of control | [10] 93 % of control

C/C=C1\CN2CCC34CC5C6CC7c8c(c9ccccc9n8C)CC(C6COC5(C)OC35C2CC1C(C(=O)OC)N5c1ccccc14)N7C (stereo unspecified)
inactive: dose: 100.0 mg/kg/injection, schedule: Q04DX003 (ip), vehicle: saline with Tween-80 87 % of control

CCO/C=C1\SC(=S)N(c2ccc(OCC)cc2)C1=O
inactive: [11] 98 % of control | [12] 98 % of control | [13] 95 % of control | [14] 98 % of control | [15] 98 % of control | [16] 97 % of control

CC(C)C(N)C(=O)O (stereo unspecified)
inactive: dose: 50.0 mg/kg/injection, schedule: Q01DX001 (ip), vehicle: Klucel (hydroxypropylcellulose) (HPC) 97 % of control | dose: 75.0 mg/kg/injection, schedule: Q01DX001 (ip), vehicle: acetone 97 % of control | [17] 100 % of control | dose: 100.0 mg/kg/injection, schedule: Q01DX001 (ip), vehicle: carboxymethylcellulose (CMC) 96 % of control | [8] 95 % of control | [12] 98 % of control | dose: 150.0 mg/kg/injection, schedule: Q01DX001 (ip), vehicle: acetone 92 % of control | [18] 99 % of control | dose: 200.0 mg/kg/injection, schedule: Q01DX001 (ip), vehicle: carboxymethylcellulose (CMC) 96 % of control | [9] 100 % of control | [14] 107 % of control | dose: 300.0 mg/kg/injection, schedule: Q01DX001 (ip), vehicle: acetone 94 % of control | dose: 400.0 mg/kg/injection, schedule: Q01DX001 (ip), vehicle: carboxymethylcellulose (CMC) 94 % of control | [10] 92 % of control | [16] 100 % of control

COC(=O)/C=C(\C(=O)OC)n1ccccc1=O
inactive: dose: 5.0 mg/kg/injection, schedule: Q01DX001 (ip), vehicle: saline 101 % of control | dose: 10.0 mg/kg/injection, schedule: Q01DX001 (ip), vehicle: saline 98 % of control | dose: 20.0 mg/kg/injection, schedule: Q01DX001 (ip), vehicle: saline 95 % of control | dose: 40.0 mg/kg/injection, schedule: Q01DX001 (ip), vehicle: saline 102 % of control

CC1SC(N)=NC1=O (stereo unspecified)
inactive: [11] 94 % of control | [5] 108 % of control | [13] 100 % of control | [6] 103 % of control | [15] 100 % of control | [7] 93 % of control

CC(C)(C)c1ccc(C(c2ccc(C(C)(C)C)cc2)C(Cl)(Cl)Cl)cc1
inactive: dose: 100.0 mg/kg/injection, schedule: Q01DX009 (ip), vehicle: saline with Tween-80 88 % of control | dose: 100.0 mg/kg/injection, schedule: Q04DX003 (ip), vehicle: saline sonified 98 % of control | dose: 200.0 mg/kg/injection, schedule: Q01DX009 (ip), vehicle: saline with Tween-80 94 % of control | dose: 200.0 mg/kg/injection, schedule: Q04DX003 (ip), vehicle: saline sonified 95 % of control | dose: 400.0 mg/kg/injection, schedule: Q01DX009 (ip), vehicle: saline with Tween-80 92 % of control | dose: 400.0 mg/kg/injection, schedule: Q04DX003 (ip), vehicle: saline sonified 97 % of control

Cc1ccc(NC(=O)c2cccc(F)c2)cc1Cl
inactive: [17] 97 % of control | [11] 94 % of control and 92 % of control | [19] 101 % of control and 104 % of control | [18] 100 % of control | [13] 105 % of control and 92 % of control | [20] 96 % of control and 104 % of control | dose: 400.0 mg/kg/injection, schedule: Q01DX001 (ip), vehicle: Klucel (hydroxypropylcellulose) (HPC) 100 % of control | [15] 97 % of control and 92 % of control | [21] 104 % of control and 109 % of control

Fc1c(F)c(F)c(Oc2c(F)c(F)c3c(c2F)C2C=CC3O2)c(F)c1F (stereo unspecified)
inactive: dose: 50.0 mg/kg/injection, schedule: Q04DX003 (ip), vehicle: Klucel (hydroxypropylcellulose) (HPC) 95 % of control | [12] 93 % of control | [14] 93 % of control

COc1ccc(O)c(/C=N/NC(N)=S)c1
inactive: [11] 100 % of control | [12] 115 % of control | [13] 104 % of control | [14] 96 % of control | [15] 100 % of control | [16] 97 % of control

CC(=O)c1cc(C)c(O)cc1C
inactive: [1] 103 % of control | [2] 92 % of control | [3] 111 % of control

COc1cc(C(=O)NNC(=O)c2cccc(C)c2)cc(OC)c1OC
inactive: [11] 100 % of control | [13] 95 % of control | [15] 105 % of control

CC(C)NC1C2CCC(CC2)C1(O)c1ccc(Cl)c(Cl)c1 (stereo unspecified)
inactive: dose: 25.0 mg/kg/injection, schedule: Q01DX009 (ip), vehicle: saline 101 % of control | dose: 25.0 mg/kg/injection, schedule: Q04DX003 (ip), vehicle: saline 95 % of control | dose: 50.0 mg/kg/injection, schedule: Q01DX009 (ip), vehicle: saline 95 % of control | [4] 97 % of control | dose: 100.0 mg/kg/injection, schedule: Q01DX009 (ip), vehicle: saline 100 % of control | [5] 92 % of control | dose: 200.0 mg/kg/injection, schedule: Q01DX009 (ip), vehicle: saline 95 % of control | [6] 101 % of control | dose: 400.0 mg/kg/injection, schedule: Q01DX009 (ip), vehicle: saline 92 % of control | [7] 92 % of control

Cn1nnnc1CCO
inactive: dose: 100.0 mg/kg/injection, schedule: Q01DX001 (ip), vehicle: acetone 94 % of control | dose: 200.0 mg/kg/injection, schedule: Q01DX001 (ip), vehicle: acetone 97 % of control | dose: 400.0 mg/kg/injection, schedule: Q01DX001 (ip), vehicle: acetone 97 % of control

CCCCCCCCCCCCN=C(N)N/C(N)=N/S(=O)(=O)c1ccc(OCCCCC)cc1
inactive: [19] 100 % of control | [20] 95 % of control | [21] 95 % of control
